The results in this text go back to patent US20200297775A1, “ENHANCED DIRECT CARDIAC REPROGRAMMING” (The J. David Gladstone Institutes, A Testamentary Trust …, priority 2016, published 2020).

For one experiment, the system named is cardiac fibroblasts. In words: Activation or knockdown of TGF-β/WNT signaling during GMT reprogramming. The class given is cell-based, mouse. The conditions noted are these: added during GMT reprogramming. An excerpt:
It was also observed that activating TGF-β or canonical WNT signaling reversed the reprogramming efficiency gains induced by SB431542 or XAV939, respectively. […] Moreover, overexpression of constitutively active SMAD2 or SMAD3 (TGF-β signaling effectors) abolished cardiac reprogramming enhancement by SB431542 (FIG. 15). […] An ˜80% reduction of ALK4 or ALK5 (FIG. 16) enhanced direct cardiac reprogramming, similar to SB431542 (FIG. 16). […] Thus, SB431542 and XAV939 enhance cardiac reprogramming by inhibiting TGF-β and canonical WNT signaling.

In experiment [1] the test system is Thy1+ neonatal cardiac fibroblasts from α-MHC-GFP transgenic mice. The experiment is described as follows: Drug screening of GMT cardiac reprogramming, α-MHC-GFP reporter, high-content imaging. The experiment is classed as cell-based, mouse. The conditions noted are these: compounds added day 1, read-out 2 weeks. From the text: To identify biological pathways that could be manipulated to improve cardiac reprogramming, a chemical biology approach involving an unbiased small molecule library screen was used. Cardiac reprogramming was induced with the recently described polycistronic GMT retrovirus Mef2c-P2A-Gata4-T2A-Tbx5 to ensure that each of the three transcription factors are optimally expressed, as described in detail in Wang et al. (2015) Circ. Res. 116:237-244.
Briefly, mouse cardiac fibroblasts (CF) were isolated from PO-P4 αMHC-GFP transgenic neonates using the migration method as previously described. Burridge et al. (2012) Cell Stem Cell 10:16-28; Ieda et al. (2010) Cell 142:375-386. Hearts were isolated, minced, and onto gelatin-coated plates and incubated in fibroblast explant media (20% FBS in IMOM) for one week at 37° C. The tissue was washed with 2×PBS, digested in 0.05% Trypsin for 5 minutes, and resuspended in fibroblast explant media. Tissues were filtered through a […] filter and pelleted. Pelleted cells were stained for 20 minutes with Thy-1-APC (anti-mouse/rat CD90.1 thy-1.1) (Ebioscience, San Diego, Calif., USA) and washed 2× with PBS as previously described. Ieda et al. (2010) Cell 142:375-386. Cells were sorted for APC^+ cells by fluorescence activated cell sorting (FACS) and plated onto 10 cm gelatin-coated plates and used fresh for all studies without freezing.
Direct conversion of Thy1^+ CFs to iCMs was completed as previously described in Ieda et al. (2010) Cell 142:375-386. Briefly, pMXs-Gata4, pMXs-Mef2c, pMXs-Tbx5, polycistronic pMXs-Mef2c-Gata4-Tbx5 (GMT polycistronic) or pMXs-dsRed were constructed as previously described. Ieda et al. (2010) Cell 142:375-386; Wang, L., et al. (2015) Circ Res 116, 237-244 (2015). Retroviral vectors were packaged using Fugene HD (Roche) and delivered in OptiMEM (10 μg) to 15-cm plates containing ˜80% confluent PlatE cells in fibroblast explant media, as previously described. Qian, L., et al. (2012) Nature 485, 593-59. Viral supernatant was collected 48 hours post-transfection and used to infect cardiac fibroblasts with the addition of 0.6 μg/ml polybrene (Chemicon) and added to cardiac fibroblasts at day −1. After 24 hours, the culture medium was replaced with cardiomyocyte culture medium (iCM medium (Qian, L., et al. (2013) Nature Protocols 8: 1204-1215)) at day 0, and replaced every 3-4 days. Three separate Gata4, Mef2c, and Tbx5 retroviruses were used in the initial drug screening and the in vivo experiments; however for further in vitro experiments following the initial screening the GMT polycistronic retrovirus was used.
For drug screening, Thy1^+ neonatal cardiac fibroblasts from α-MHC-GFP transgenic mice were plated in 384-well plates at a density of 2000 cells/well. Cells were reprogrammed with the GMT retrovirus as described above. At day 1 of reprogramming, the virus was replaced with iCM medium and the compounds were added to the wells using a Biomek liquid-handling robotic station to achieve a 1:1000 dilution of the drug-library concentration. Libraries of 5500 toxicologically tested compounds (e.g., LOPAC, TOCRIS, LONZA, and […]) were screened. At day 14 of reprogramming, the plates were fixed and stained for GFP and Troponin T as described under immunocytochemistry and imaged using high-throughput, high-content imaging with an INCELL system. Data were analyzed using the INCELL image-analysis package.
For immunocytochemical analysis and quantification, samples were fixed using 4% paraformaldehyde (PFA), washed twice in PBS containing 0.1% Triton X-100 (PBST), and blocked with Power Block Universal Blocking Reagent (Biogenex, # HK085-5K) for 15 minutes at room temperature as previously described. Qian et al. (2013) Nature protocols 8:1204-1215. Samples were incubated in a mixture containing primary antibodies diluted in PBST and blocking buffer (1:1) and incubated at 4° C. overnight.

Experiment [2] has as its system cardiac and fibroblast genes. The experiment is described as follows: qRT-PCR panel of cardiac and fibroblast genes during GMT reprogramming. The experiment is classed as cell-based, mouse. To be noted: 2 weeks of reprogramming. As for the experimental part: To identify which of the WNT or TGF-β inhibitor compounds most effectively improve reprogramming quality, qRT-PCR was performed for a panel of cardiac and fibroblast genes. Briefly, total RNA was isolated with a commercial kit (Direct-Zol RNA Mini-prep, Zymo Research). Reverse transcription was carried out using a mixture of oligo(dT) and random hexamer primers (SuperScript III First-Strand Synthesis SuperMix for qRT-PCR, ThermoFisher Scientific). Real-time PCR Analysis was conducted with the 7900HT FAST real-time PCR detection system (Applied Biosystems). For high-throughput, real-time PCR analysis, samples were analyzed with the 96.96 Dynamic Array IFC on the Biomark HD system (Fluidigm).
In general terms: Real-time PCR tracks product formation cycle by cycle.

For experiment [3], the system named is mouse cardiac fibroblasts. In words: GMT reprogramming efficiency, α-MHC-GFP+ iCMs (dose, timing, FACS). The class given is cell-based.
For experiment [4], the system named is mouse cardiac fibroblasts. The experiment is described as follows: Appearance of beating cells, Troponin T staining and sarcomere organization in iCMs. The experiment is classed as cell-based. The conditions noted are these: after GMT infection. As for the experimental part:
For immunocytochemical analysis and quantification, samples were fixed using 4% paraformaldehyde (PFA), washed twice in PBS containing 0.1% Triton X-100 (PBST), and blocked with Power Block Universal Blocking Reagent (Biogenex, # HK085-5K) for 15 minutes at room temperature as previously described. Qian et al. (2013) Nature protocols 8:1204-1215. Samples were incubated in a mixture containing primary antibodies diluted in PBST and blocking buffer (1:1) and incubated at 4° C. overnight. The following primary antibodies were used: troponin T, cardiac isoform Ab-1, mouse monoclonal antibody (Thermo Scientific # MS-295-PO, 1:200), monoclonal anti-α-actinin sarcomeric antibody (Sigma Aldrich # A7811, 1/200), and anti-GFP (Thermo Scientific # A11120, 1:200). Samples were washed twice with PBST for 15 minutes each at room temperature and then incubated in a mixture containing secondary antibodies diluted in PBST and blocking buffer (1:1) at room temperature for 1 hour. Samples were washed three times with PBST for 15 minutes each at room temperature and visualized. Stained cells were quantified with ImageJ Imaging Analysis Software. The standard error mean was calculated for all comparisons; p<0.05 was considered statistically significant. […]

A further experiment relates to SMAD2/3. The experiment is described as follows: Western blot, phosphorylation of SMAD2/3. The experiment is classed as cell-based. As for the experimental part: (§1) Next, the mechanisms by which the small molecules regulate TGF-β and WNT signaling were investigated. Proteins from cell lysates containing 20 μg of protein were separated by SDS-PAGE and electrophoretically transferred onto polyvinylidene difluoride membranes (BioRad). Membranes were then washed in PBS, treated with blocking buffer (Li-cor), and then incubated with primary antibodies at 4° C. overnight. The following primary antibodies were used: anti-GAPDH antibody loading control (Abcam # ab9484, 0.5 μg/ml), anti-Active β-Catenin antibody (Millipore #05-665, 1:1000), anti-T-Antigen (Abcam # ab16879, 1:1000), and anti-phospho-Smad2/3 (Cell Signaling #8685S, 1:1000). Membranes were washed in PBS and incubated with the appropriate secondary antibodies (Li-Cor, IRDye […]; IRDye 800CW, 1:10,000) for 1 hour at room temperature. Membranes were washed and visualized with an Odyssey Fc Dual-mode Imaging System.
(In general: Immunoblotting shows a protein as a band on a membrane.)

A further experiment relates to active β catenin. In words: Western blot, active β catenin. The class given is cell-based. As for the experimental part: as §1

Take `Cc1c[nH]c(-c2cnc(NCCNc3ccc(C#N)cn3)nc2-c2ccc(Cl)cc2Cl)n1` [CHIR99021]: the “effect on reprogramming enhanced by SB431542 and XAV939” value (shortened to “effect … by SB431542 and XAV939”) in the experiment with cardiac fibroblasts was “reversed the combined effect”. As to `NC(=O)c1ccc(-c2nc(-c3ccc4c(c3)OCCO4)c(-c3ccccn3)[nH]2)cc1` [D4476], the “hit in drug screen (Z score over 5)” value in experiment [1] was “top hits”. With `O=C(Nc1cccc2cccnc12)c1ccc(N2C(=O)[C@@H]3[C@H](C2=O)[C@@H]2C=C[C@H]3C2)cc1` [IWR1], the “hit in drug screen (Z score over 5)” value in experiment [1] is “top hits”. Regarding `c1ccc2c(-c3cnn4cc(-c5ccc(N6CCNCC6)cc5)cnc34)ccnc2c1` [LDN-193189], in experiment [1], the “hit in drug screen (Z score over 5)” value is recorded as “top hits”. Turning to `NC(=O)c1ccc(-c2nc(-c3ccc4c(c3)OCO4)c(-c3ccccn3)[nH]2)cc1` [SB431542], the “hit in drug screen (Z score over 5)” value in experiment [1] is listed as “top hits”. Moreover, the “downregulating fibroblast gene expression” value in experiment [2] (among TGF-β inhibitors) is “most efficient of the TGF-β inhibitors”. In experiment [3] (GMT, SB431542 2.6 μM), the “timing of addition for reprogramming efficiency” value is reported as “most effective if added at day 1”. Further, the “appearance of beating cells” value in experiment [4] is listed as 3 weeks. For the same molecule, the “phosphorylation of SMAD2/3 (indicator of TGF-β activation)” value in the experiment on SMAD2/3 is given as “significantly reduced”.

`Oc1nc(-c2ccc(C(F)(F)F)cc2)nc2c1CSCC2` [XAV939]: the “hit in drug screen (Z score over 5)” value in experiment [1] is listed as “top hits”. Besides, in experiment [2] (among WNT inhibitors), the “activating cardiac gene expression” value was “most efficient of the WNT inhibitors”. This molecule showed a most effective dose in experiment [3] (GMT reprogramming efficiency) of 5 µM. The “effect of time of addition on enhancement” value in experiment [3] (GMT, XAV939) is recorded as “same enhancement effect when added at any time during the first 8 days”. Further, the “expression of active β catenin (indicator of WNT activation)” value in the experiment with active β catenin was “significantly reduced”.

As to `O=c1c(O)c(-c2cc(O)c(O)c(O)c2)oc2cc(O)cc(O)c12` [myricetin], the “hit in drug screen (Z score over 5)” value in experiment [1] was “top hits”. Consider `CN1C(C(=O)Nc2ccccn2)=C(O)c2ccccc2S1(=O)=O` [piroxicam], for which the “hit in drug screen (Z score over 5)” value in experiment [1] was “top hits”. For the molecule “TGF-β1 ligand: excess TGF-β1 ligand added during reprogramming”, in the experiment with cardiac fibroblasts, the “effect on reprogramming enhanced by SB431542” value is on record as “reversed the effect of SB431542”; the “effect … by SB431542 and XAV939” value is recorded as “partially inhibited the combined effect”. In the case of activin, the “effect on reprogramming enhanced by SB431542” value with cardiac fibroblasts is reported as “did not have a significant effect”.

B1: BMP4: regulates other aspects of TGF-β signaling (protein, UniProt P12644 293-408, looked up)
Bone morphogenetic protein 4: SPKHHSQRARKKNKNCRRHSLYVDFSDVGWNDWIVAPPGYQAFYCHGDCPFPLADHLNSTNHAIVQTLVNSVNSSIPKACCVPTELSAISMLYLDEYDKVVLKNYQEMVVEGCGCR
B1: the “effect on reprogramming enhanced by SB431542” value with cardiac fibroblasts is given as “did not significantly affect cardiac reprogramming”.

B2: WNT11: activates the non-canonical WNT pathway (protein, UniProt O96014 25-354, looked up)
Protein Wnt-11: IKWLALSKTPSALALNQTQHCKQLEGLVSAQVQLCRSNLELMHTVVHAAREVMKACRRAFADMRWNCSSIELAPNYLLDLERGTRESAFVYALSAAAISHAIARACTSGDLPGCSCGPVPGEPPGPGNRWGGCADNLSYGLLMGAKFSDAPMKVKKTGSQANKLMRLHNSEVGRQALRASLEMKCKCHGVSGSCSIRTCWKGLQELQDVAADLKTRYLSATKVVHRPMGTRKHLVPKDLDIRPVKDSELVYLQSSPDFCMKNEKVGSHGTQDRQCNKTSNGSDSCDLMCCGRGYNPYTDRVVERCHCKYHWCCYVTCRRCERTVERYVCK
On to B2, for which, in the experiment with cardiac fibroblasts, the “effect … by SB431542 and XAV939” value is recorded as “did not have a significant effect”.

B3: WNT3a: activates canonical WNT signaling (protein, UniProt P56704 19-352, looked up)
Protein Wnt-3a: SYPIWWSLAVGPQYSSLGSQPILCASIPGLVPKQLRFCRNYVEIMPSVAEGIKIGIQECQHQFRGRRWNCTTVHDSLAIFGPVLDKATRESAFVHAIASAGVAFAVTRSCAEGTAAICGCSSRHQGSPGKGWKWGGCSEDIEFGGMVSREFADARENRPDARSAMNRHNNEAGRQAIASHMHLKCKCHGLSGSCEVKTCWWSQPDFRAIGDFLKDKYDSASEMVVEKHRESRGWVETLRPRYTYFKVPTERDLVYYEASPNFCEPNPETGSFGTRDRTCNVSSHGIDGCDLLCCGRGHNARAERRREKCRCVFHWCCYVSCQECTRVYDVHTCK
Consider B3, for which, in the experiment on cardiac fibroblasts, the “effect … by SB431542 and XAV939” value is reported as “partially blocked the effects”.
